Each structure is given as a SMILES string.

The target of the first assay is human PPARγ (Homo sapiens (Human), UniProt P37231). Description: PPARγ agonistic activity: luciferase reporter assay in PPARγ:RXRα:4ERPP/CHO-K1 cells. It is filed as cell-based. Particulars: CHO-K1, test compound 10^−6 M; control compound X (1 μM) taken as 100%. An excerpt: Evaluation of PPARγ Agonistic Activity
Sequence of human PPARγ (P37231 29-505): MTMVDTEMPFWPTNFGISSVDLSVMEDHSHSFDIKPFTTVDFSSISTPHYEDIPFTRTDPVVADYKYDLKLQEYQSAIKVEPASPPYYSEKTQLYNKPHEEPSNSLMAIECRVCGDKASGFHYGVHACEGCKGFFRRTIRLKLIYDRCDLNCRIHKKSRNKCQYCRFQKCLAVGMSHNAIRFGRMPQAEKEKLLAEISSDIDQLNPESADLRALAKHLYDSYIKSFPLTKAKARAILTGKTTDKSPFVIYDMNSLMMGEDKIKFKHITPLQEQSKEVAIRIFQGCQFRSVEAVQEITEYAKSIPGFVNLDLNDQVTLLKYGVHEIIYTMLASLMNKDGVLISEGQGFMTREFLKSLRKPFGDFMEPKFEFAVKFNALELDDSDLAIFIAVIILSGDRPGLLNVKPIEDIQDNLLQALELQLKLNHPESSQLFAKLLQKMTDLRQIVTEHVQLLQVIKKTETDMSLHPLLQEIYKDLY
Sequence of human PPARγ (P19793 whole entry partner): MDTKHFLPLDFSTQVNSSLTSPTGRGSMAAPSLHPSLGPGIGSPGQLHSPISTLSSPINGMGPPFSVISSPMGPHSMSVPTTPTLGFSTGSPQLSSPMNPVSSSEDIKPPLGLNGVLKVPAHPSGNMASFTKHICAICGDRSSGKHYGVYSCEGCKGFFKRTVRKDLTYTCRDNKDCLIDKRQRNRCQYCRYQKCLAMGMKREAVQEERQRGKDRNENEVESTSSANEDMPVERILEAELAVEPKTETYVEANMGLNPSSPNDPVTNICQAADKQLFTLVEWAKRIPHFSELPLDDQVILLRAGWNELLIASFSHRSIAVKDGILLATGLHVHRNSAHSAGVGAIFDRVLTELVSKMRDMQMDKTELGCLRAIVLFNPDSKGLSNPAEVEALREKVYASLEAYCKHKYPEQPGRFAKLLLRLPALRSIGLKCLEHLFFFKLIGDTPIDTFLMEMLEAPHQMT
(5) Introduction of Human PPARγ- and RXRα-Expression Plasmid and Reporter Plasmid into Cho-K1 Cell as Well as Establishment of Expressed Cell
A CHO-K1 cell cultured in a 150 cm^2 cell culture flask [manufactured by Corning Costar Corporation, USA] comprising Ham's F12 medium [manufactured by INVITROGEN, USA] supplemented with 10% fetal bovine serum [manufactured by INVITROGEN, USA] was taken off by treating with 0.5 g/L trypsin-0.2 g/L EDTA (ethylenediamine tetraacetate) [manufactured by Life Technologies, Inc., USA], and then the cell was washed with PBS (Phosphate-buffered saline) [manufactured by INVITROGEN, USA], centrifuged (1000 rpm, 5 minutes) and suspended in PBS. Subsequently, DNA was introduced into the cell under the conditions shown below using GENE PULSER [manufactured by Bio-Rad Laboratories, USA].
Namely, to a cuvette having a 0.4 cm gap were added 8×10^6 cells and 10 μg of plasmid pVgRXR2-hPPARγ obtained in the above-mentioned (4) and 10 μg of reporter plasmid pGL3-4ERPP-TK neo obtained in the above-mentioned (3), which was subjected to electroporation at the voltage of 0.25 kV under the capacitance of 960 μF. Subsequently, the cell was transferred into a F12 medium comprising 10% fetal bovine serum and cultured for 24 hours, and then the cell was taken off again and centrifuged. Then, the pellet was suspended in Ham's F12 medium comprising 10% fetal bovine serum supplemented with 500 μg/ml of Geneticin [manufactured by INVITROGEN, USA] and 250 μg/ml of Zeocin [manufactured by INVITROGEN, USA]. The obtained suspension was diluted to the density of 10^4 cells/ml and inoculated in a 96-well plate [manufactured by Corning Costar Corporation, USA], which was cultured in a CO2 gas incubator at 37° C., whereby obtaining a Geneticin- and Zeocin-resistant transformant.
Subsequently, after the transformed cell line thus obtained was cultured in a 24-well plate [manufactured by Corning Costar Corporation, USA], a cell line in which expression of the luciferase was induced, i.e., PPARγ:RXRα:4ERPP/CHO-K1 cell was selected by the addition of 10 μM pioglitazone hydrochloride.
(6) Evaluation of PPARγ Agonistic Activity
PPARγ:RXRα:4ERPP/CHO-K1 cells obtained in the above-mentioned (5) were cultured in F12 medium [manufactured by INVITROGEN, USA] containing 10% fetal bovine serum [manufactured by MOREGATE, Australia], seeded in a 96 well half-area white plate [manufactured by Corning Coster Corporation, USA] at 5×10^3 cells/well, and cultured in a CO2 incubator at 37° C. overnight.
Then, the medium was removed from the 96 well half-area white plate, hamF12 medium containing 0.1% fatty acid-free bovine serum albumin (BSA) (45 μl) and a test compound (5 μl) were added, and the mixture was cultured in the CO2 incubator at 37° C. for 1 day. After removing the medium, Picagene 7.5 [manufactured by Dai Nippon Inki, Japan] (20 μl) diluted 2-fold with HBSS (HANKS' BALANCED SALT SOLUTION) [manufactured by BIO […], USA] was added, and the mixture was stirred. Using 1420 ARVO Multilabel Counter [manufactured by PerkinElmer, USA], luciferase activity was measured.
The percentage (%) was calculated from the luciferase activity of the test compound when the luciferase activity of the control compound (compound X: 5-[3-(4-{[2-(2-furyl)-5-methyl-1,3-oxazol-4-yl]methoxy}-3-methoxyphenyl)propyl]-1,3-oxazolidine-2,4-dione) (1 μM) was taken as 100% and the luciferase activity of the test compound non-administration group was taken as 0%.
`CCCc1c(Cc2ccc(-c3ccccc3-c3noc(=O)[nH]3)cc2F)c(=O)n([C@H]2CC[C@H](OC(C)C(C)(C)O)CC2)c2ncnn12` (single isomer, unassigned; (+)) [Example 247, (+)-6-{[3-fluoro-2′-(5-oxo-4,5-dihydro-1,2,4-oxadiazol-3-yl)biphenyl-4-yl]methyl}-4-[trans-4-(2-hydroxy-1,2-dimethylpropoxy)cyclohexyl]-7-propyl[1,2,4]triazolo[1,5-a]pyrimidin-5(4H)-one] yielded an activation at 1 µM of 17%.

With `CCCc1c(Cc2ccc(-c3ccccc3-c3noc(=O)[nH]3)cc2)c(=O)n([C@H]2CC[C@H](OC(C)C(C)(C)O)CC2)c2ncnn12` (single isomer, unassigned) [Example 318, 4-[trans-4-(2-hydroxy-1,2-dimethylpropoxy)cyclohexyl]-6-{[2′-(5-oxo-4,5-dihydro-1,2,4-oxadiazol-3-yl)biphenyl-4-yl]methyl}-7-propyl[1,2,4]triazolo[1,5-a]pyrimidin-5(4H)-one (Retention Time: Short)], the activation at 1 µM worked out at 17%.

The same assay, now with this note: test compound 10^−6 M; control compound X (1 μM) taken as 100%.
On to `CCCc1c(Cc2ccc(-c3ccccc3-c3noc(=O)[nH]3)cc2)c(=O)n([C@H]2CC[C@H](OC(C)C(C)(C)O)CC2)c2ncnn12` (stereo partly drawn) [Example 300, 4-[trans-4-(2-hydroxy-1,2-dimethylpropoxy)cyclohexyl]-6-{[2′-(5-oxo-4,5-dihydro-1,2,4-oxadiazol-3-yl)biphenyl-4-yl]methyl}-7-propyl[1,2,4]triazolo[1,5-a]pyrimidin-5(4H)-one], for which the “PPARγ agonistic activity (activation % (10^−6 M))” value amounted to 16%. On the same count and under the same terms, for `CCCc1c(Cc2ccc(-c3ccccc3-c3noc(=O)[nH]3)cc2)c(=O)n([C@H]2CC[C@H](OC(C)C(C)(C)O)CC2)c2ncnn12` (single isomer, unassigned) [Example 319, 4-[trans-4-(2-hydroxy-1,2-dimethylpropoxy)cyclohexyl]-6-{[2′-(5-oxo-4,5-dihydro-1,2,4-oxadiazol-3-yl)biphenyl-4-yl]methyl}-7-propyl[1,2,4]triazolo[1,5-a]pyrimidin-5(4H)-one (Retention Time: Long)] the value was 16%; for `CCCc1c(Cc2ccc(-c3ccccc3-c3noc(=O)[nH]3)cc2)c(=O)n(C2CCC(OCC(C)O)CC2)c2ccnn12` (single isomer, unassigned) [Example 441, 4-[trans-4-(2-hydroxypropoxy)cyclohexyl]-6-{[2′-(5-oxo-4,5-dihydro-1,2,4-oxadiazol-3-yl)biphenyl-4-yl]methyl}-7-propylpyrazolo[1,5-a]pyrimidin-5(4H)-one (Optically Active Form, Retention Time: Long)], 19%; for `CCCc1c(Cc2ccc(-c3ccccc3-c3noc(=O)[nH]3)cc2F)c(=O)n([C@H]2CC[C@H](OC(C)C(C)(C)O)CC2)c2ncnn12` (single isomer, unassigned) [Example 248, 6-{[3-fluoro-2′-(5-oxo-4,5-dihydro-1,2,4-oxadiazol-3-yl)biphenyl-4-yl]methyl}-4-[trans-4-(2-hydroxy-1,2-dimethylpropoxy)cyclohexyl]-7-propyl[1,2,4]triazolo[1,5-a]pyrimidin-5(4H)-one], 19%. For the molecule `CCCCc1c(Cc2ccc(-c3ccccc3-c3noc(=O)[nH]3)cc2)c(=O)n(C2CCOC(C)C2)c2ncnn12` (stereo not drawn) [Example 161, 7-butyl-4-(2-methyltetrahydro-2H-pyran-4-yl)-6-{[2′-(5-oxo-4,5-dihydro-1,2,4-oxadiazol-3-yl)biphenyl-4-yl]methyl}[1,2,4]triazolo[1,5-a]pyrimidin-5(4H)-one], the “PPARγ agonistic activity (activation % (10^−6 M))” value came to 47%. On to `CCCCc1c(Cc2ccc(-c3ccccc3-c3noc(=O)[nH]3)cc2)c(=O)n(C2CCOC(C)C2)c2ncnn12` (stereo not drawn) [Example 160, 7-butyl-4-(2-methyltetrahydro-2H-pyran-4-yl)-6-{[2′-(5-oxo-4,5-dihydro-1,2,4-oxadiazol-3-yl)biphenyl-4-yl]methyl}[1,2,4]triazolo[1,5-a]pyrimidin-5(4H)-one], for which the “PPARγ agonistic activity (activation % (10^−6 M))” value worked out at 26%.

In another assay the target is human AT1 receptor (Homo sapiens (Human), UniProt P30556). In words: AT1 receptor antagonistic activity: [125I]-angiotensin II binding assay with AT1 membrane. Particulars: 22.5 pM [125I]-angiotensin II, human AT1 receptor-expressing CHO-K1 membrane, 1 hr room temperature. The procedure: Evaluation of AT1 Receptor Antagonistic Activity
Sequence of human AT1 receptor (P30556 whole entry): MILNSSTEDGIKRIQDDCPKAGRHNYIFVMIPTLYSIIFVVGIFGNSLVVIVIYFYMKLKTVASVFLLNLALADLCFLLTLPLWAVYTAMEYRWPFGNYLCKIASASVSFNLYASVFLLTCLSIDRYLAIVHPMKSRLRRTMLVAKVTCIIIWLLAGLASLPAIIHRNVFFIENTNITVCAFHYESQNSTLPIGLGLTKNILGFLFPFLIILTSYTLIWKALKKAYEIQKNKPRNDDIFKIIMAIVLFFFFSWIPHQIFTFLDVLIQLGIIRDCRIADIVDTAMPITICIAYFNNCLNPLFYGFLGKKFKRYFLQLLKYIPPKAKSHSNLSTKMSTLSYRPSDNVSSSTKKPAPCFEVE
(1) Preparation of Human AT1 Receptor-Expressing CHO-K1 Cellular Membrane Fraction
CHO-K1 cell (RIKEN, Japan) capable of stable expression of human AT1 receptor was cultured, recovered, suspended in homogenize buffer (10 mM NaHCO3 (pH 7.4), 5 mM EDTA, 1× Complete EDTA free) [manufactured by Roche, Switzerland], and homogenized. The homogenate was centrifuged at low-speed (900×g, 10 min, 4° C.), and the supernatant was recovered and ultracentrifuged (90,000×g, 1 hr, 4° C.). The supernatant was discarded, and the pellets were resuspended in suspension buffer (50 mM Tris (pH 7.4), 1 mM EDTA, 1× Complete EDTA free).
(2) Evaluation of AT1 Receptor Antagonistic Activity
(9 μg) in the presence of AT1 membrane and test compound in 100 μL (total reaction volume) of reaction buffer (50 mM Tris (pH 7.4), 10 mM MgCl2 supplemented or not supplemented with 0.3 mg/mL fatty acid-free bovine serum albumin [manufactured by Wako Pure Chemical Industries, Ltd., Japan]). The reaction mixture was incubated in 96 well polypropylene plate for 1 hr at room temperature, and the reaction was quenched by rapid filtration (96 well cell harvester) through a GF/C filter treated with wash buffer (50 mM Tris (pH 7.4)). Subsequently, the filter was washed 5 times with 0.3 mL of ice-cooled wash buffer. […] Total binding was measured in the presence of 1% DMSO and nonspecific binding was measured in the presence of 1 μM Candesartan.
One may read the IC50 as the concentration at which inhibition is half-maximal. Lower therefore signals greater potency in that assay. As to `CCCc1c(Cc2ccc(-c3ccccc3-c3nc(=O)o[nH]3)cc2)c(=O)n(C2CCC(OCC(C)O)CC2)c2ccnn12` (single isomer, unassigned) [Example 440, 4-[trans-4-(2-hydroxypropoxy)cyclohexyl]-6-{[2′-(5-oxo-4,5-dihydro-1,2,4-oxadiazol-3-yl)biphenyl-4-yl]methyl}-7-propylpyrazolo[1,5-a]pyrimidin-5(4H)-one (Optically Active Form, Retention Time: Short)], the IC50 came to 1.8 nM. On to `CCCc1c(Cc2ccc(-c3ccccc3-c3noc(=O)[nH]3)cc2)c(=O)n(C2CCC(OCC(C)O)CC2)c2ccnn12` (single isomer, unassigned) [Example 441, 4-[trans-4-(2-hydroxypropoxy)cyclohexyl]-6-{[2′-(5-oxo-4,5-dihydro-1,2,4-oxadiazol-3-yl)biphenyl-4-yl]methyl}-7-propylpyrazolo[1,5-a]pyrimidin-5(4H)-one (Optically Active Form, Retention Time: Long)], for which the IC50 was 1.6 nM.

On to `CCCc1c(Cc2ccc(-c3ccccc3-c3noc(=O)[nH]3)cc2F)c(=O)n([C@H]2CC[C@H](OC(C)C(C)(C)O)CC2)c2ncnn12` (single isomer, unassigned) [Example 248, 6-{[3-fluoro-2′-(5-oxo-4,5-dihydro-1,2,4-oxadiazol-3-yl)biphenyl-4-yl]methyl}-4-[trans-4-(2-hydroxy-1,2-dimethylpropoxy)cyclohexyl]-7-propyl[1,2,4]triazolo[1,5-a]pyrimidin-5(4H)-one], for which the IC50 is 2.2 nM.

A further assay relates to Male SHRs. In words: Antihypertensive effect: mean blood pressure in SHRs after oral administration. Type of assay: in vivo, rat. The following applies: SHR, dose 3 mg/kg, during 24 hours after administration. The procedure: Male SHRs (28-40 weeks old, Japan SLC, Inc., Japan) were anesthetized with sodium pentobarbital (50 mg/kg, i.p.). The left femoral artery was cannulated with a polyethylene catheter filled with saline comprising heparin (200 U/mL). The catheter was exteriorized at the back of the neck and each SHR was individually housed in a cage and left two or four days to recover. The mean blood pressure (MBP) was obtained from the systemic blood pressure which was monitored from the femoral artery using a pressure transducer connected to a polygraph system (Nihon Kohden Corporation). The heart rate was measured from the blood pressure pulse intervals. The rats which had MBP over 150 mmHg were used for the experiment. When the blood pressure had stabilized, vehicle (0.5 w/v % methylcellulose) or compounds were orally administered. All compounds were suspended in 0.5 w/v % methylcellulose and orally administered at a volume of 2 mL/kg. The MBP was measured during 24 hours after the administration.
On to `CCCc1c(Cc2ccc(-c3ccccc3C3=NOC(O)N3)cc2F)c(=O)n(C2CCC(OC(C)C(C)(C)O)CC2)c2ncnn12.[K+]` (single isomer, unassigned; (-)) [Example 459, (−)-6-{[3-fluoro-2′-(5-oxo-4,5-dihydro-1,2,4-oxadiazol-3-yl)biphenyl-4-yl]methyl}-4-[trans-4-(2-hydroxy-1,2-dimethylpropoxy)cyclohexyl]-7-propyl[1,2,4]triazolo[1,5-a]pyrimidin-5(4H)-one potassium salt (Retention Time: Long)], for which the “Maximum MBP reduction (mmHg)” value is 64 mmHg.
